Values quoted from earlier work in patent publication US20140302178A1, “Natural Product for Decreasing Symptoms During Viral Infections” (priority 2013, published 2014).

Test system: Herpes Simplex Virus (HSV)
Conditions: oral antiviral therapy; pooled meta-analysis

Compound	decrease of outbreak duration and the associated pain [days]
CC(C)[C@H](N)C(=O)OCCOCn1cnc2c(=O)[nH]c(N)nc21 [valaciclovir]	1
Nc1nc2c(ncn2COCCO)c(=O)[nH]1 [aciclovir]	1
CC(=O)OCC(CCn1cnc2cnc(N)nc21)COC(C)=O [famciclovir]	1
